Reference: article PMC6934184, “Selective DNA-PKcs inhibition extends the therapeutic index of localized radiotherapy and chemotherapy” (The Journal of Clinical Investigation, 2019)

Molecular target: T1, ITK (Homo sapiens, UniProt Q08881)
T1 construct: purchased Thermo Fisher Scientific (Life Technologies) SelectScreen
Test: SelectScreen Z'LYTE
Format: biochemical
How it was run: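 Percent values come from Thermo SelectScreen profiling of NU5455, combining activity and binding assays. CSF1R was run in Z'LYTE format at Km app ATP, and CAMK1 in Adapta format with ATP listed at 10.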

T1 sequence (Q08881 whole entry): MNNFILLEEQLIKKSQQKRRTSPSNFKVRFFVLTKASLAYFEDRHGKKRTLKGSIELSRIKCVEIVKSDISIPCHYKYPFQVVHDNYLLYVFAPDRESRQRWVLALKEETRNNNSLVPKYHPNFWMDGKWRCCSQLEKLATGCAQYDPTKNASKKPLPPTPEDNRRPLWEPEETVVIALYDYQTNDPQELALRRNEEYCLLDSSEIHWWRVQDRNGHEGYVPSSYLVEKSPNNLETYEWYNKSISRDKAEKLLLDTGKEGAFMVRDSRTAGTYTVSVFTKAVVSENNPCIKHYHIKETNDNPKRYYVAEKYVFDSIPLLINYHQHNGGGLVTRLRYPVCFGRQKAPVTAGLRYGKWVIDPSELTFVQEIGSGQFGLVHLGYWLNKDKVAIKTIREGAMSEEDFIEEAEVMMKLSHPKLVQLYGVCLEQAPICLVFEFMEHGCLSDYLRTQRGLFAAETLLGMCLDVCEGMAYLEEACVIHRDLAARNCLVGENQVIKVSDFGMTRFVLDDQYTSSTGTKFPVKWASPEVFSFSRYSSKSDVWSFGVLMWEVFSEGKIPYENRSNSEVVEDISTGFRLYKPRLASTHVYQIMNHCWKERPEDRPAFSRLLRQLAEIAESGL

CN(C(=O)CN1CCOCC1)c1ccc2sc3c(-c4cccc5c(=O)cc(N6CC7CCC(C6)O7)oc45)cccc3c2c1 [NU5455]
inhibition at 1 µM: 5.5%
